# Data published in ChEMBL document CHEMBL5465560, “Selectivity Literature for EUbOPEN Chemogenomic Library” (2024).
# What was measured:
# [1] = Selectivity interaction (KinomeScan (DiscoverX)) EUB0000092b PKNB; conditions: at 10 µM
# [2] = biological target: T1, Serine/threonine-protein kinase ULK2 (Homo sapiens) (UniProt Q8IYT8); test: Selectivity interaction (KinomeScan (DiscoverX)) EUB0000655a ULK2; conditions: at 10 µM
# T1 sequence (whole entry): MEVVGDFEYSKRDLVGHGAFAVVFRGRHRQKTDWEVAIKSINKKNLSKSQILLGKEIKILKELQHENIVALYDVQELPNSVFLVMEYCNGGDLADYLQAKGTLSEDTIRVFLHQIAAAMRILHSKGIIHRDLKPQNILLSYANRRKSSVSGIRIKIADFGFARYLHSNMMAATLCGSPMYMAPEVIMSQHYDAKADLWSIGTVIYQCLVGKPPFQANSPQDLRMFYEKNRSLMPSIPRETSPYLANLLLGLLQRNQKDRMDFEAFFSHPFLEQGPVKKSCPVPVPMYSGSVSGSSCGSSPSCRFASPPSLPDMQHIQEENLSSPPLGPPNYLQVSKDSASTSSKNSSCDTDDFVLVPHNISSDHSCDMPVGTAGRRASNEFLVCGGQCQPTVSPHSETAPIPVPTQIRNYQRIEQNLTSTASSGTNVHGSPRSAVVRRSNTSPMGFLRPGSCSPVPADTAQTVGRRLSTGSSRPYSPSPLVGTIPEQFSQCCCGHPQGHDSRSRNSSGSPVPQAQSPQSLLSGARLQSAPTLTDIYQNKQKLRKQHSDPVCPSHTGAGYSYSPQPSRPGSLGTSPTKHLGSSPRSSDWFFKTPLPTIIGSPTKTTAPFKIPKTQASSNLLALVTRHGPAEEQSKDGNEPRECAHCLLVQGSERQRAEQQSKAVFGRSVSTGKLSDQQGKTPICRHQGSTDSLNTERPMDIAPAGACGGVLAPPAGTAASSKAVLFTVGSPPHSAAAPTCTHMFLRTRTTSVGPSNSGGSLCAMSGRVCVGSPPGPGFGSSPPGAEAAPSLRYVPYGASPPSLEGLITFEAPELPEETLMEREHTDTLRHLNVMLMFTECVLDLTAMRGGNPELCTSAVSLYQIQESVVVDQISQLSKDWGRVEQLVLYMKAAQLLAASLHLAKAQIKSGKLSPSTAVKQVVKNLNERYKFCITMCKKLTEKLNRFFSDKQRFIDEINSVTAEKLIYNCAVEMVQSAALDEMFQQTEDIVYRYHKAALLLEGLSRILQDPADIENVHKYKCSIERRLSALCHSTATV
# [3] = biological target: T2, Serine/threonine-protein kinase haspin (Homo sapiens) (UniProt Q8TF76); test: Selectivity interaction (Kinase panel (DSF assay)) EUB0001559a GSG2
# T2 sequence (whole entry): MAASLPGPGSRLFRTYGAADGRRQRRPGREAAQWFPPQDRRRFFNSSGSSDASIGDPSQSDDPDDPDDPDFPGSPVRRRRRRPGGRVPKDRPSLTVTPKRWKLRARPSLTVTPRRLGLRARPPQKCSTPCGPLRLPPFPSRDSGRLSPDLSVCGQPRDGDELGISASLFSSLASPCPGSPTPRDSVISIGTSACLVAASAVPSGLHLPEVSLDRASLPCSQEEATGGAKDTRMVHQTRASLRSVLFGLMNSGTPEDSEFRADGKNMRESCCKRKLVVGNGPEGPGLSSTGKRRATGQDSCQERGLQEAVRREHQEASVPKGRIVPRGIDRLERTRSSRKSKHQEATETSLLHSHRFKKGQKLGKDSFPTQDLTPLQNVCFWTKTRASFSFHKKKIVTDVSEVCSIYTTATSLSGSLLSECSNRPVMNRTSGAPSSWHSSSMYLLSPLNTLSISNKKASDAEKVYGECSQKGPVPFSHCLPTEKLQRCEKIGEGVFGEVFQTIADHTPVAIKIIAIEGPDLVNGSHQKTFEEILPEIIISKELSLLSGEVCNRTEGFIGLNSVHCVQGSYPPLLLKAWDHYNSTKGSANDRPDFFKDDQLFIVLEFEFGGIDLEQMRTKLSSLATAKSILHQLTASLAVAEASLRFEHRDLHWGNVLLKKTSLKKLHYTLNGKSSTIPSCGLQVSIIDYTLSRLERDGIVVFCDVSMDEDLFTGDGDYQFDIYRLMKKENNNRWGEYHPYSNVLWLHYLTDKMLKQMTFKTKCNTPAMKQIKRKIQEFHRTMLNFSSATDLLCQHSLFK
# [4] = system: Fibroblast growth factor receptor 3 (Homo sapiens), P22607 [G697C]; test: (§1) Selectivity interaction (KinomeScan (DiscoverX)) EUB0000666a FGFR3; conditions: at 10 µM
# Fibroblast growth factor receptor 3 (Homo sapiens), P22607 [G697C], sequence (P22607 whole entry G697C): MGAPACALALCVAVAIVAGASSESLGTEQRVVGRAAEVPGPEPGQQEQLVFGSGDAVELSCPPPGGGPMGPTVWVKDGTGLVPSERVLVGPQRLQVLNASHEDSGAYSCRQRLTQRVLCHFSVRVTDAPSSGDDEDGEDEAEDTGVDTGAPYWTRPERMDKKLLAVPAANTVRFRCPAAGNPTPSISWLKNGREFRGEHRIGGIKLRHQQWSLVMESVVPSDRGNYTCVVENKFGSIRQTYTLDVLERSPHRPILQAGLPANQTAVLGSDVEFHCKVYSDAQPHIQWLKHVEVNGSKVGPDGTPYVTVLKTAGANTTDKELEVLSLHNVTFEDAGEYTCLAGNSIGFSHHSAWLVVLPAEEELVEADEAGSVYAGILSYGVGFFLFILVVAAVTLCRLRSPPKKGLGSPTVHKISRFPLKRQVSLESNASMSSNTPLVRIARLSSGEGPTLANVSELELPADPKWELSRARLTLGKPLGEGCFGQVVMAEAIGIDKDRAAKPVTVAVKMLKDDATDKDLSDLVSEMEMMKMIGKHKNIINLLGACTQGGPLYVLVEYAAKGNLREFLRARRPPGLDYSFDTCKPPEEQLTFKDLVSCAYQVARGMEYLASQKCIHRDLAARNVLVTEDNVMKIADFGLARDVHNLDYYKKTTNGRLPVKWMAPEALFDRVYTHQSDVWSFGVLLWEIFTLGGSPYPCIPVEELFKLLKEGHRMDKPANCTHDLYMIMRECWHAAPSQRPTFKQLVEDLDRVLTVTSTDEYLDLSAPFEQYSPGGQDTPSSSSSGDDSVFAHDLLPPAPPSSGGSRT
# [5] = biological target: Fibroblast growth factor receptor 3 (Homo sapiens, UniProt P22607); test: as §1; conditions: at 10 µM
# [6] = biological target: T3, Calcium/calmodulin-dependent protein kinase type IV (Homo sapiens) (UniProt Q16566); test: Selectivity interaction (ActivX KiNativ screen (kinase selectivity in THP-1 cell lysates)) EUB0000639a CAMK4; type: subcellular; conditions: lysate
# T3 sequence (whole entry): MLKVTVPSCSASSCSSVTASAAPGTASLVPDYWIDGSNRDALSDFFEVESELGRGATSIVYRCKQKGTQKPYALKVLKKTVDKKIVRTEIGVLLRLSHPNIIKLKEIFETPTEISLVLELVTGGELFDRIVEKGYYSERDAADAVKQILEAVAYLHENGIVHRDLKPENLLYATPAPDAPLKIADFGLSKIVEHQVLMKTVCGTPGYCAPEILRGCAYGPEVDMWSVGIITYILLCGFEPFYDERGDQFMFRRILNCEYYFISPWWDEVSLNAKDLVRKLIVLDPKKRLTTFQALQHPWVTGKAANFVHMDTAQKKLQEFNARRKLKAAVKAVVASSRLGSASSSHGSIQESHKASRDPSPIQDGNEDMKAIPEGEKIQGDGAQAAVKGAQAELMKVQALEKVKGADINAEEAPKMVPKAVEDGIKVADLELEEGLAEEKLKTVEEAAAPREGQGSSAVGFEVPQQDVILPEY
# [7] = biological target: Phosphatidylinositol 4-kinase beta (Homo sapiens, UniProt Q9UBF8); test: Selectivity interaction (ActivX KiNativ screen (kinase selectivity in THP-1 cell lysates)) EUB0000639a PI4KB; type: subcellular; conditions: lysate
# Phosphatidylinositol 4-kinase beta, sequence (Q9UBF8 2-816 limits assumed): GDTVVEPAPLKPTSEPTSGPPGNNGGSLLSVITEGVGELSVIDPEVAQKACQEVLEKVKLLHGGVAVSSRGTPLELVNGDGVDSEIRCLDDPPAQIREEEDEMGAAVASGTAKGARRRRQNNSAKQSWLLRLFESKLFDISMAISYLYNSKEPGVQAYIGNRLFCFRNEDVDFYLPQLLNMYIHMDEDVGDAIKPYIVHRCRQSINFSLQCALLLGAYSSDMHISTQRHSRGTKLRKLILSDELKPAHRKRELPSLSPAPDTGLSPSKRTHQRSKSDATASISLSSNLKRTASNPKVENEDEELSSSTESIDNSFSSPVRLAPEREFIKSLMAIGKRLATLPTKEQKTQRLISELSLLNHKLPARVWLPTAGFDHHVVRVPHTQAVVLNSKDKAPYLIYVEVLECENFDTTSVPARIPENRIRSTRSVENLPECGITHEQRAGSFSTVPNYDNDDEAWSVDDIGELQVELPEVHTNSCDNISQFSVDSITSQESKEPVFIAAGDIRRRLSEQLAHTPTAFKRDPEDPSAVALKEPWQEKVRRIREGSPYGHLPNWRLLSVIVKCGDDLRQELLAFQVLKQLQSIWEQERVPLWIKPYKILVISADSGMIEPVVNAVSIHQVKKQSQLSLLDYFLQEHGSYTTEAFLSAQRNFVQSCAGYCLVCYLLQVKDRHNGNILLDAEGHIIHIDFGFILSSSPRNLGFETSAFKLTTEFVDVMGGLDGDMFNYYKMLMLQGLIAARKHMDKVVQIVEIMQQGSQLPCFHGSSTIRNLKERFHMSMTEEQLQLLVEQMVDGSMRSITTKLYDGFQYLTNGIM
# [8] = biological target: STE20-like serine/threonine-protein kinase (Homo sapiens, UniProt Q9H2G2); test: Selectivity interaction (ActivX KiNativ screen (kinase selectivity in THP-1 cell lysates)) EUB0000639a SLK; type: subcellular; conditions: lysate, at 0.2 µM
# STE20-like serine/threonine-protein kinase, sequence (Q9H2G2 whole entry, looked up, canonical isoform): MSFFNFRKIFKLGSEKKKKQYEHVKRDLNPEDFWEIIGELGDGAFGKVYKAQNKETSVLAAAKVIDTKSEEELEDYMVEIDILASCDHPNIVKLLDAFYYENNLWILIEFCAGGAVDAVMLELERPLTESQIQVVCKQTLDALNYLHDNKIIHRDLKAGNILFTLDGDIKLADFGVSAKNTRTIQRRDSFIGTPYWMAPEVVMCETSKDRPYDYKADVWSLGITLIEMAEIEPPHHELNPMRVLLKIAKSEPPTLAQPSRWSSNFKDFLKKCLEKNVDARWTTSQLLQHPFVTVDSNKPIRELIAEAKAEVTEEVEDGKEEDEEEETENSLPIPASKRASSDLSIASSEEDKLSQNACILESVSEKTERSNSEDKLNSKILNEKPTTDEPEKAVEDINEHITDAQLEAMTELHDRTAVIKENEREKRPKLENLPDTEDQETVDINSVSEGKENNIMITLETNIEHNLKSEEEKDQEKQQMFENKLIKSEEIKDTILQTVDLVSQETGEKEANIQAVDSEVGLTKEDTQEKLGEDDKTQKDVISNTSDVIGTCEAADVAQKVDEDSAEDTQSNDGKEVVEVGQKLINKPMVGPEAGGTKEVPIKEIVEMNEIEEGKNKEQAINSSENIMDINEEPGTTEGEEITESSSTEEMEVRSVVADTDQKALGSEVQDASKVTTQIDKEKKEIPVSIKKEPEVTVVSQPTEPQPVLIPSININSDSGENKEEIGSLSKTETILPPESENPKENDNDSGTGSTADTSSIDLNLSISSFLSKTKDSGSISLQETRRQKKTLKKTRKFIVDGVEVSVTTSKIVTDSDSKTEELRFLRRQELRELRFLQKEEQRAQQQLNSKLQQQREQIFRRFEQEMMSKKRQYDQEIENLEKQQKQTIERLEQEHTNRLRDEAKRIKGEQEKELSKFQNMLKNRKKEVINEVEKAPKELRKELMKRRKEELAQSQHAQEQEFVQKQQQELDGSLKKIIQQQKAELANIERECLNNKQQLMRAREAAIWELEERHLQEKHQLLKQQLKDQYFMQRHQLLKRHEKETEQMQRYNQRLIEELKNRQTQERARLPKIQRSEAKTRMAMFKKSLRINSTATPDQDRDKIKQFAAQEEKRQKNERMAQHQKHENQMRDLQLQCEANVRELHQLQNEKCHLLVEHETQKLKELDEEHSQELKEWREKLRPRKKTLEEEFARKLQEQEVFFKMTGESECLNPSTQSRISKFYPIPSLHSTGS
# [9] = biological target: Phosphatidylinositol 4,5-bisphosphate 3-kinase catalytic subunit alpha isoform (Homo sapiens) (UniProt P42336); test: Selectivity interaction (Kinase panel (Invitrogen)) EUB0000639a PIK3CA; conditions: at 200 nM
# Phosphatidylinositol 4,5-bisphosphate 3-kinase catalytic subunit alpha isoform (Homo sapiens), sequence (P42336 whole entry, canonical isoform): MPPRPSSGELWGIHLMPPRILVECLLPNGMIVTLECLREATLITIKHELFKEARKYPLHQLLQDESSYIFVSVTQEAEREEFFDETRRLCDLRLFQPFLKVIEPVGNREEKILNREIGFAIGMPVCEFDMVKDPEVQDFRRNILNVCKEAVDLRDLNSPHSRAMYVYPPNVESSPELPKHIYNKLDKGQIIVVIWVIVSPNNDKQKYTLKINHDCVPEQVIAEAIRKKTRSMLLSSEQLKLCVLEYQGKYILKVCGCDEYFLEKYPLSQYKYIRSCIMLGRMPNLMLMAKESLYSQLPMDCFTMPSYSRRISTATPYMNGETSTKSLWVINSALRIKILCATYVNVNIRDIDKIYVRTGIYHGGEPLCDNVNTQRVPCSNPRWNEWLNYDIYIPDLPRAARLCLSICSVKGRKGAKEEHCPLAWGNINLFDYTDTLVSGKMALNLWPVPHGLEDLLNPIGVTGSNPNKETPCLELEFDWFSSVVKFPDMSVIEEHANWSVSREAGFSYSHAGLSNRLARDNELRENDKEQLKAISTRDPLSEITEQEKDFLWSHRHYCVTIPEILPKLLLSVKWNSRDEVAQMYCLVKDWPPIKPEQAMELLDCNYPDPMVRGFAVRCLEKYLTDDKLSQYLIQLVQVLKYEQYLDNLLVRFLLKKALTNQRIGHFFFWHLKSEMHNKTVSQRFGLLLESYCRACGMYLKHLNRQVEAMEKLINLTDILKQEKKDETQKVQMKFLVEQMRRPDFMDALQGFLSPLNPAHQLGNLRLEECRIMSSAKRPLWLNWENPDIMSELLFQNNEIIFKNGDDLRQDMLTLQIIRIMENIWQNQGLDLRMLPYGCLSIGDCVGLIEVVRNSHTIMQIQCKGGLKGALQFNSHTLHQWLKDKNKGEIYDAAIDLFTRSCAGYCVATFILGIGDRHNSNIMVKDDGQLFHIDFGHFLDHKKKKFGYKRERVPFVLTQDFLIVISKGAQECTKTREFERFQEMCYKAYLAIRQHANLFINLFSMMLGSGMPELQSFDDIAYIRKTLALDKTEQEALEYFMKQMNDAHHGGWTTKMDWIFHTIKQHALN
# [10] = biological target: TGF-beta receptor type-2 (Homo sapiens) (UniProt P37173); test: Selectivity interaction (KinomeScan (DiscoverX)) EUB0000607a TGFBR2; conditions: at 10 µM
# TGF-beta receptor type-2 (Homo sapiens), sequence (P37173 whole entry): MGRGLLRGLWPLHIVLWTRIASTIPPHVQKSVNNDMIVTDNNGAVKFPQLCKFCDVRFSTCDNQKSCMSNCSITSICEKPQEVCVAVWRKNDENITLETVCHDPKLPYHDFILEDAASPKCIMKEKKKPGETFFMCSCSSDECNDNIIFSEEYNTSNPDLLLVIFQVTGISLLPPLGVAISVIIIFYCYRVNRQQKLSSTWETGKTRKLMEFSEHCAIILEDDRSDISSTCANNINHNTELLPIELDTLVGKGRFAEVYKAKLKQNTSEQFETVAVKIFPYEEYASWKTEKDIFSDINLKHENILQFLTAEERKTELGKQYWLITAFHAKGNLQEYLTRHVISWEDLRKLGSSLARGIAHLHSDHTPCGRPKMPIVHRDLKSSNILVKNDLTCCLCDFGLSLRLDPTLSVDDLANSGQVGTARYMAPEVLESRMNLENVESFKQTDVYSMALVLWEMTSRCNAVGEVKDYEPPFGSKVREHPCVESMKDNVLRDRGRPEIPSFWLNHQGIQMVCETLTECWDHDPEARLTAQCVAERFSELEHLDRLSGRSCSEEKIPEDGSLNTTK
structure (smiles),measurement,setting,value
CCC(=O)N1CCN(c2ccc(-n3c(=O)ccc4cnc5ccc(-c6cnc7ccccc7c6)cc5c43)cc2C(F)(F)F)CC1,% of control,[1],64%
CN(C)CCOc1ccc(-c2nc(-c3ccncc3)c(-c3ccc4c(c3)CC/C4=N\O)[nH]2)cc1,% of control,[2],90%
CN(C(=O)c1cnn2cccnc12)c1cc2c(cc1N1CCOCC1)C(=O)N(C[C@@H](F)C(C)(C)O)C2,dTM,[3],1.8 K
O=C(NOC[C@H](O)CO)c1ccc(F)c(F)c1Nc1ccc(I)cc1F,% of control,[4],88%
same,% of control,[5],100%
CC[C@@H]1[C@H](F)C(=O)N[C@@H]1COc1nccc2cc(C(N)=O)c(OC)cc12 [ZIMLOVISERTIB],% of inhibition,[6]; at 0.01 µM,25.8%
same,% of inhibition,[6]; at 0.04 µM,19.1%
same,% of inhibition,[6]; at 0.2 µM,-4.7%
same,% of inhibition,[6]; at 1 µM,11.2%
same,% of inhibition,[6]; at 5 µM,18.6%
same,% of inhibition,[7]; at 0.01 µM,-20.4%
same,% of inhibition,[7]; at 0.04 µM,12.3%
same,% of inhibition,[7]; at 0.2 µM,15.1%
same,% of inhibition,[7]; at 1 µM,7.7%
same,% of inhibition,[7]; at 5 µM,-1.3%
same,% of inhibition,[8],-1.2%
same,% of inhibition,[9],5.29%
CNC(=O)Nc1ccc(-c2nc(N3CC4CCC(C3)O4)c3cnn(C4CCC5(CC4)OCCO5)c3n2)cc1,% of control,[10],100%
